Experimental data from US12552748B2, “Pyridine (thio)amides as fungicidal compounds” (Bayer Aktiengesellschaft, priority 2020, dated 2026).
Marks after values point to notes of the source that are not given here.

Experiment: physchem
Assay type: physicochemical
Experimental: Measurement of Log P values as provided herein was performed according to EEC directive 79/831 Annex V.A8 by HPLC (High Performance Liquid Chromatography) on reversed phase columns with the following methods: […] If more than one Log P value is available within the same method, all the values are given and separated by “+”. Calibration was done with straight-chain alkan2-ones (with 3 to 16 carbon atoms) with known Log P values (measurement of Log P values using retention times with linear interpolation between successive alkanones). Lambda-max-values were determined using UV-spectra from 200 nm to 400 nm and the peak values of the chromatographic signals

Row | Compound | LogP
1 | C#Cc1cccc(Oc2cnc(Cl)cc2C(=O)NCCc2ccc(C)cc2C)c1 [Compound I-129] | 4.45^[a]
2 | Cc1ccc(CCNC(=O)c2cc(Cl)ncc2Oc2cccc([N+](=O)[O-])c2)c(C)c1 [Compound I-130] | 4.08^[a]
3 | C#Cc1ccc(C(F)(F)CNC(=O)c2cc(Cl)ncc2Oc2cccc(C(F)F)c2)c(Cl)c1 [Compound I-143] | 4.32^[a]
4 | Cc1cccc(Oc2cnc(Cl)cc2C(=O)NCC(F)(F)c2ccc(Br)cc2Cl)c1 [Compound I-145] | 5.08^[a]
5 | C=Cc1c(Cl)ncc(Oc2cccc(C(F)(F)F)c2)c1C(=O)NCC(F)(F)c1ccc(C)cc1C [Compound I-146] | 4.93^[a]
6 | Cc1ccc(C(F)(F)CNC(=O)c2c(Oc3cccc(C(F)(F)F)c3)cnc(Cl)c2C2CC2)c(C)c1 [Compound I-149] | 5.04^[a]
7 | CCN(CCc1ccccc1)C(=O)c1cc(Cl)ncc1Oc1cccc(C(F)(F)F)c1 [Compound I-152] | 4.44^[a]
8 | Cc1ccc(C(F)(F)CNC(=O)c2c(Oc3cccc(C4CC4)c3F)cnc(Cl)c2Cl)c(C)c1 [Compound I-153] | 5.08^[a]
9 | C=Cc1cccc(Oc2cnc(Cl)cc2C(=O)NCC(F)(F)c2ccc(C)cc2C)c1 [Compound I-155] | 4.96^[a]
10 | N#Cc1ccc(C(F)(F)CNC(=O)c2cc(Cl)ncc2Oc2cccc(C(F)F)c2)c(Cl)c1 [Compound I-156] | 3.87^[a]
11 | Cc1ccc(CCNC(=O)c2cc(Cl)nc(Cl)c2Oc2cccc(C(F)(F)F)c2)c(C)c1 [Compound I-158] | 5.14^[a]
12 | Cc1ccc(C(F)(F)CNC(=O)c2cc(Cl)ncc2Oc2cncc(C(F)(F)F)c2)c(C)c1 [Compound I-163] | 4.15^[a]
13 | O=C(c1cc(Cl)ncc1Oc1cccc(C(F)(F)F)c1)N(O)CCc1ccc(Cl)cc1 [Compound I-164] | 4.01^[a]
14 | CCC(=O)N(CCc1ccccc1)C(=O)c1cc(Cl)ncc1Oc1cccc(C(F)(F)F)c1 [Compound I-166] | 5.08^[a]
15 | Cc1ccc(C(F)(F)CNC(=O)c2c(Oc3cccc(C(F)(F)F)c3)cnc(Oc3cccc(C(F)(F)F)c3)c2-n2cccn2)c(C)c1 [Compound I-169] | 5.53^[a]
16 | COc1ccc(CCN(C(C)=O)C(=O)c2cc(Cl)ncc2Oc2cccc(C(F)(F)F)c2)cc1 [Compound I-171] | 4.55^[a]
17 | O=C(NCC(F)(F)c1ccc(-c2ccncc2Cl)cc1Cl)c1cc(-c2ccncc2Cl)ncc1Oc1cccc(C(F)(F)F)c1 [Compound I-172] | 4.33^[a]
18 | C=Cc1cc(C(=O)NCC(F)(F)c2ccc(C)cc2C)c(Oc2cccc(C3CC3)c2F)cn1 [Compound I-173] | 5.04^[a]
19 | CSc1c(Cl)ncc(Oc2cccc(C(F)(F)F)c2)c1C(=O)NCC(F)(F)c1ccc(C)cc1C [Compound I-174] | 4.85^[a]
20 | Cc1ccc(C(F)(F)CNC(=O)c2c(Oc3cccc(Cl)c3)cnc(Cl)c2Cl)c(C)c1 [Compound I-175] | 4.85^[a]

Row | Compound | LogP
21 | CON(CCc1ccc(Cl)cc1Cl)C(=O)c1cc(Cl)ncc1Oc1cccc(C(F)(F)F)c1 [Compound I-177] | 5.24^[a]
22 | Cc1ccc(C(F)(F)CNC(=O)c2c(Br)cnc(Cl)c2Oc2cccc(Cl)c2)c(C)c1 [Compound I-178] | 5.04^[a]
23 | C#Cc1c(Cl)ncc(Oc2cccc(C(F)(F)F)c2)c1C(=O)NCC(F)(F)c1ccc(C)cc1C [Compound I-179] | 5.74^[a]
24 | Cc1ccc(C(F)(F)CNC(=O)c2c(Oc3cccc(C(F)(F)F)c3)cnc(Cl)c2F)c(C)c1 [Compound I-181] | 4.85^[a]
25 | COc1cccc(Oc2cnc(C)cc2C(=O)NCC(F)(F)c2ccc(C)cc2C)c1 [Compound I-182] | 3.71^[a]
26 | CCc1ccc(C(F)(F)CNC(=O)c2cc(Cl)ncc2Oc2cccc(C3CC3)c2)c(Cl)c1 [Compound I-185] | 5.49^[a]
27 | CCc1ccc(C(F)(F)CNC(=O)c2cc(CC)ncc2Oc2cccc(C3CC3)c2F)c(Cl)c1 [Compound I-187] | 5.45^[a]
28 | Cc1ccc(C(F)(F)CNC(=O)c2c(Oc3cccc(C(F)(F)F)c3)cnc(Cl)c2-c2ccccc2)c(C)c1 [Compound I-188] | 5.12^[a]
29 | C#Cc1cc(C(=O)NCCc2ccc(C)cc2C)c(Oc2cccc(C(F)(F)F)c2)cn1 [Compound I-191] | 4.34^[a]
30 | O=C(NCC(F)(F)c1ccc(C2CC2)cc1Cl)c1cc(Cl)ncc1Oc1cccc(C2CC2)c1 [Compound I-193] | 5.45^[a]
31 | Cc1ccc(CCNC(=O)c2cc(C3CC3)ncc2Oc2cccc(C(F)(F)F)c2)c(C)c1 [Compound I-194] | 4.97^[a]
32 | O=C(NCCc1ccc2[nH]cnc2c1)c1cc(Cl)ncc1Oc1cccc(C(F)(F)F)c1 [Compound I-197] | 1.82^[a]
33 | C[Si](C)(C)C#Cc1ccc(C(F)(F)CNC(=O)c2cc(Cl)ncc2Oc2cccc(C(F)F)c2)c(Cl)c1 [Compound I-198] | 5.97^[a]
34 | COc1c(Cl)ncc(Oc2cccc(C(F)(F)F)c2)c1C(=O)NCC(F)(F)c1ccc(C)cc1C [Compound I-199] | 4.74^[a]
35 | COc1c(Cl)ncc(Oc2cccc(Cl)c2)c1C(=O)NCC(F)(F)c1ccc(C)cc1C [Compound I-200] | 4.62^[a]
36 | Cc1cc(C(=O)NCC(F)c2ccc(Cl)cc2Cl)c(Oc2cccc(C(F)(F)F)c2)cn1 (centres unmarked) [Compound I-202] | 4.18^[a]
37 | COCCc1ccc(C(F)(F)CNC(=O)c2cc(Cl)ncc2Oc2cccc(C(F)F)c2)c(Cl)c1 [Compound I-203] | 4.14^[a]
38 | Cc1cc(C(=O)NCC(F)c2ccc(Cl)cc2C)c(Oc2cccc(C3CC3)c2F)cn1 (centres unmarked) [Compound I-205] | 4.37^[a]
39 | N#CN(CCc1ccc(Cl)cc1)C(=O)c1cc(Cl)ncc1Oc1cccc(C(F)(F)F)c1 [Compound I-207] | 4.89^[a]
40 | COc1cccc(Oc2cnc(C)cc2C(=O)NCC(F)c2ccc(C)cc2Cl)c1 (centres unmarked) [Compound I-209] | 3.62^[a]

Now from value to compound:

Row | LogP | Compound
41 | 3.85^[a] | Cc1ccc(CCNC(=O)c2cc(Cl)ncc2Oc2cccc(C=O)c2F)c(C)c1 [Compound I-127]
42 | 4.71^[a] | Cc1ccc(CCNC(=O)c2cc(Cl)ncc2Oc2cccc(Cl)c2F)c(C)c1 [Compound I-128]
43 | 4.76^[a] | Cc1ccc(CCNC(=O)c2cc(Cl)ncc2Oc2cccc(C)c2F)c(C)c1 [Compound I-131]
44 | 4.26^[a] | COc1cccc(Oc2cnc(Cl)cc2C(=O)NCCc2ccc(C)cc2C)c1F [Compound I-132]
45 | 4.41^[a] | Cc1ccc(CCNC(=O)c2cc(Cl)ncc2Oc2ccccc2)c(C)c1 [Compound I-133]
46 | 4.78^[a] | Cc1ccc(CCNC(=O)c2cc(Cl)ncc2Oc2cccc(Br)c2F)c(C)c1 [Compound I-134]
47 | 5.23^[a] | CCc1cccc(Oc2cnc(Cl)cc2C(=O)NCCc2ccc(C)cc2C)c1 [Compound I-135]
48 | 4.43^[a] | Cc1ccc(CCNC(=O)c2cc(Cl)ncc2Oc2cccc(OC(F)F)c2)c(C)c1 [Compound I-136]
49 | 4.86^[a] | Cc1ccc(CCNC(=O)c2cc(Cl)ncc2Oc2cccc(Br)c2)c(C)c1 [Compound I-137]
50 | 3.88^[a] | Cc1ccc(CCNC(=O)c2cc(Cl)ncc2Oc2cccc(C3COC3)c2)c(C)c1 [Compound I-139]
51 | 5.01^[a] | Cc1ccc(CCNC(=O)c2cc(Cl)ncc2Oc2cccc(I)c2)c(C)c1 [Compound I-141]
52 | 4.20^[a] | COC(=O)c1cccc(Oc2cnc(Cl)cc2C(=O)NCCc2ccc(C)cc2C)c1 [Compound I-147]
53 | 5.45^[a] | Cc1ccc(CCNC(=O)c2cc(Cl)ncc2Oc2cccc3c2CCC3)c(C)c1 [Compound I-150]
54 | 5.44^[a] | Cc1ccc(CCNC(=O)c2cc(Cl)ncc2Oc2cccc(-c3ccccc3)c2)c(C)c1 [Compound I-151]
55 | 4.72^[a] | Cc1ccc(CCNC(=O)c2cc(Cl)ncc2Oc2ccc(F)c(Cl)c2)c(C)c1 [Compound I-154]
56 | 4.33^[a] | COCc1cccc(Oc2cnc(Cl)cc2C(=O)NCCc2ccc(C)cc2C)c1 [Compound I-157]

Row | LogP | Compound
57 | 5.03^[a] | Cc1ccc(CCNC(=O)c2cc(Cl)ncc2Oc2cccc(-n3ccc(C(F)(F)F)n3)c2)c(C)c1 [Compound I-159]
58 | 4.51^[a] | CCc1cc(Oc2cnc(Cl)cc2C(=O)NCCc2ccc(C)cc2C)c(C(=O)OC)s1 [Compound I-162]
59 | 4.97^[a] | Cc1ccc(CCNC(=O)c2cc(Cl)ncc2Oc2ccc(OC(F)(F)F)cc2)c(C)c1 [Compound I-165]
60 | 5.03^[a] | Cc1ccc(CCNC(=O)c2cc(Cl)ncc2Oc2ccc3ccccc3c2)c(C)c1 [Compound I-168]
61 | 4.83^[a] | Cc1ccc(CCNC(=O)c2cc(Cl)ncc2Oc2cccc(N(C)C)c2)c(C)c1 [Compound I-170]
62 | 3.50^[a] | COc1cccc(Oc2cnc(C)cc2C(=O)NCCc2ccc(C)cc2C)c1 [Compound I-180]
63 | 3.56^[a] | Cc1ccc(CCNC(=O)c2cc(C)ncc2Oc2cccc(C(F)F)c2)c(C)c1 [Compound I-183]
64 | 3.11^[a] | Cc1ccc(CCNC(=O)c2ccncc2Oc2cccc(C(F)(F)F)c2)c(C)c1 [Compound I-184]
65 | 5.22^[a] | Cc1ccc(CCNC(=O)c2cc(C3CC3)ncc2Oc2cccc(C3CC3)c2)c(C)c1 [Compound I-186]
66 | 4.95^[a] | O=C(NCCc1ccc(C(F)(F)F)cc1Cl)c1cc(Cl)ncc1Oc1cccc(C(F)(F)F)c1 [Compound I-192]
67 | 4.17^[a] | COC(=O)Cc1cccc(Oc2cnc(Cl)cc2C(=O)NCCc2ccc(C)cc2C)c1 [Compound I-196]
68 | 4.66^[a] | Cc1ccc(C(F)(F)CNC(=O)c2cc(Cl)ncc2Oc2cccc(C(F)(F)F)c2)c(Cl)c1 [Compound I-201]
69 | 4.61^[a] | Cc1ccc(CCNC(=O)c2cc(-c3ccncc3Cl)ncc2Oc2cccc(C(F)(F)F)c2)c(C)c1 [Compound I-204]
70 | 3.63^[a] | Cc1ccc(CCNC(=O)c2cc(-c3cn[nH]c3)ncc2Oc2cccc(C(F)(F)F)c2)c(C)c1 [Compound I-206]
71 | 5.04^[a] | Cc1ccc(CCNC(=O)c2cc(C(F)(F)F)ncc2Oc2cccc(C(F)(F)F)c2)c(C)c1 [Compound I-208]
